PMC3920638, “The Development of Selective Inhibitors of NagZ: Increased Susceptibility of Gram-Negative Bacteria to β-Lactams” (Chembiochem, 2013)
Values after ≈ are worked out from the molar mass of the structure shown. Like-named read-outs stand apart in the source and are kept apart here.

How the values were obtained:
P. aeruginosa PA01 [1] = experiment: Minimal inhibitory concentration of β-lactams by serial dilution; settings: Pseudomonas aeruginosa, PA01, 18 h, standard serial dilution, 18 h at 37°C
Method: Determination of the Minimal Inhibitory Concentration of β-lactams: Cultures were prepared by inoculating Mueller–Hinton broth (5 mL) with a small amount of a glycerol stock of P. aeruginosa PA01 and then were grown at 37°C to an OD600 value of ≈0.5. 96-well plates containing a range of concentrations of β-lactams varying by factors of 2 were prepared. […] These broths were inoculated with the culture (100 μL) and allowed to incubate at 37°C for 18 h. […] All MIC determinations were performed in triplicate.

P. aeruginosa PA01 [2] = experiment: Agar diffusion test; assay type: cell-based, Pseudomonas aeruginosa; settings: 6 mm filter disks loaded with 30 μg of antibiotic, incubation overnight
O-GlcNAcase (OGA) = target: T1, O-GlcNAcase (OGA) (Homo sapiens, UniProt O60502); experiment: Kinetic analysis of inhibitors against O-GlcNAcase; assay type: biochemical
T1 sequence (O60502 1-916): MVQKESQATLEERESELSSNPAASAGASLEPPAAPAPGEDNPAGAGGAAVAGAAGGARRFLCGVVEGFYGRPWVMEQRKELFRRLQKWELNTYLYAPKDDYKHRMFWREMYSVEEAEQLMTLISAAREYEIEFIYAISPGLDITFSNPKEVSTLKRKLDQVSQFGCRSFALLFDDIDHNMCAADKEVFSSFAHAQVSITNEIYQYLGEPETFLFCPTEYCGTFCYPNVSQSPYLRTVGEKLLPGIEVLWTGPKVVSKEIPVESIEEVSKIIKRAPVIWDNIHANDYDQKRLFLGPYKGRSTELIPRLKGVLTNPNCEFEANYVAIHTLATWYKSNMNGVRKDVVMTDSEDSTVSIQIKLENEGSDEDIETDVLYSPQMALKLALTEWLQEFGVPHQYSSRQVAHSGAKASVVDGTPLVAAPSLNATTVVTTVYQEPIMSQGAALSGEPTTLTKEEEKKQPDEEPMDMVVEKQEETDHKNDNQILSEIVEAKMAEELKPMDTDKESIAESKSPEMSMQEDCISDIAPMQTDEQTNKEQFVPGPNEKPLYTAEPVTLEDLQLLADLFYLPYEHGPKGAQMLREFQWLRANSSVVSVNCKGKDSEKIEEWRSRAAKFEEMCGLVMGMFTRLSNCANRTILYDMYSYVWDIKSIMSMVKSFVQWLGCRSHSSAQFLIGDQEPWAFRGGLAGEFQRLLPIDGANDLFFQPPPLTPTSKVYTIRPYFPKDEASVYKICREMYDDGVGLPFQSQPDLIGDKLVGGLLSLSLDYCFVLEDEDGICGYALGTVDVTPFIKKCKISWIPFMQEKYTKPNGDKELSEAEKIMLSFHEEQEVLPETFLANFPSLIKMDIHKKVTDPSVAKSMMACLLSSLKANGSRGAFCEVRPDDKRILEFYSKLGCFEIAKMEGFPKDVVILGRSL
Method: (§1) Kinetic analysis of inhibitors: Assays against O-GlcNAcase, VcNagZ and StNagZ were performed in NaPi buffer (50 mM, NaCl (100 mM), pH 6.5) and for β-hexosaminidase B citrate buffer (50 mM, NaCl (100 mM), pH 4.25) using 4-methylumbelliferyl N-acetyl-β-D-glucosaminide as substrate. For NAGLU, assays were performed in acetate buffer (100 mM, pH 4.3), containing bovine serum albumin (0.5 mgmL^−1) using 4-methylumbelliferyl N-acetyl-α-D-glucosaminide as substrate. Release of 4-methylumbelliferone was monitored continuously using a fluorimeter plate reader for OGA, VcNagZ and StNagZ, and a 30 min stopped-assay procedure was used for β-hexosaminidase B and NAGLU (quenched with fourfold excess of quenching buffer, glycine (200 mM), pH 10.75). For OGA, the inhibitors were preincubated with the enzyme for 10 min before the addition of the substrate. Readings were taken at excitation and emission wavelengths of 368 nm and 450 nm respectively. […] Inhibitors were added at a range of concentrations encompassing their Ki values. The rates at each inhibitor concentration were plotted and the best fit line through the points ascertained. The −1/Ki was taken as the point where the line of best fit intersected with 1/Vmax.

VcNagZ = target: T2, VcNagZ (Vibrio cholerae serotype O1, UniProt Q9KU37); experiment: Kinetic analysis of inhibitors against VcNagZ; assay type: biochemical; settings: for S.R. (Ki OGA/Ki VcNagZ): selectivity ratio
T2 sequence (Q9KU37 1-330): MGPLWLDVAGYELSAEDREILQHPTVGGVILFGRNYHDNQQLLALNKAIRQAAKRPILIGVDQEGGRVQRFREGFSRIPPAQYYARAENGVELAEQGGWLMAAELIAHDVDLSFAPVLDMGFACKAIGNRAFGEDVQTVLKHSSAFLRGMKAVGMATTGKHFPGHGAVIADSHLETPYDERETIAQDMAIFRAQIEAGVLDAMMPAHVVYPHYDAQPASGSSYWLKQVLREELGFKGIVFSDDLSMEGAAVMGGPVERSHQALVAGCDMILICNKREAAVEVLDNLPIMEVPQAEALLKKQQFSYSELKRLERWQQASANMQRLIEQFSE
Method: as §1

NAGLU [3] = target: T3, NAGLU (Homo sapiens, UniProt P54802); design: method as in PMID 10833408; settings: read-out: NAGLU Ki; literature value; cited from earlier work
T3 sequence (P54802 24-743): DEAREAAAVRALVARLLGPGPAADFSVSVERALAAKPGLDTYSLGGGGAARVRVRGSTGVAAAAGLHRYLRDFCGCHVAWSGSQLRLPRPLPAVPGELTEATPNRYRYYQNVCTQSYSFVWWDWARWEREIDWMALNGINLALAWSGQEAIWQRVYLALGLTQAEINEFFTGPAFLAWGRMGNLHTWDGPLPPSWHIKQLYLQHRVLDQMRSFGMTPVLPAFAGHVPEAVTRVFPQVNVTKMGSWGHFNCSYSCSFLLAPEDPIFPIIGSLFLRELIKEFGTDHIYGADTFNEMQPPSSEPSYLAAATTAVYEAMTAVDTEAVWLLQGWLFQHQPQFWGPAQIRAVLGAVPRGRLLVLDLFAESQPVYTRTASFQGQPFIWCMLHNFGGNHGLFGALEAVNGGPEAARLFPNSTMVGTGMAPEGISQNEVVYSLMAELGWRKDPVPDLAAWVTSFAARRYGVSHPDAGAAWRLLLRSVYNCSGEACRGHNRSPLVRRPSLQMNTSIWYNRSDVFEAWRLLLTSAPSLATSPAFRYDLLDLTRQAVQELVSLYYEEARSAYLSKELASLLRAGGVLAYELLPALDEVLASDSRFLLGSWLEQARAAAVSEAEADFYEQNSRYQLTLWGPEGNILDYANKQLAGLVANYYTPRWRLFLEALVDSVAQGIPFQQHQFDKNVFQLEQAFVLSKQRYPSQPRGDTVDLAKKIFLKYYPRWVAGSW

StNagZ = target: T4, StNagZ (Salmonella typhimurium, UniProt Q8ZQ06); experiment: Kinetic analysis of inhibitors against StNagZ; assay type: biochemical; settings: for S.R. (Ki OGA/Ki StNagZ): selectivity ratio
T4 construct: made in house

NAGLU [4] = target: T3, NAGLU; experiment: Kinetic analysis of inhibitors against NAGLU; assay type: biochemical
Method: as §1

β-hexosaminidase B = target: T5, β-hexosaminidase B (Homo sapiens, UniProt P07686); experiment: Kinetic analysis of inhibitors against β-hexosaminidase B; assay type: biochemical
T5 sequence (P07686 122-556): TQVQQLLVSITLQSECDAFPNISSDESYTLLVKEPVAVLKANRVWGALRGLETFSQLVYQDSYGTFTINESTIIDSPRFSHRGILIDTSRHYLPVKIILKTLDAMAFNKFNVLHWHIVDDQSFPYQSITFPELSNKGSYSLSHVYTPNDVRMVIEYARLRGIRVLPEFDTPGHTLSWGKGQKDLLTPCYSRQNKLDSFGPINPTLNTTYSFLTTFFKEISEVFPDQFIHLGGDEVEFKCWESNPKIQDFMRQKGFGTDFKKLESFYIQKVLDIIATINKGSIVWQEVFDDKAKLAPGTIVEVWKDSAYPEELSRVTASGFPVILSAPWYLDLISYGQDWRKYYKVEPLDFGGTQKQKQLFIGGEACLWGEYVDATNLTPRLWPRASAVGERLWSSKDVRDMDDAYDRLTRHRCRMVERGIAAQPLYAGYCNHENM
Method: as §1

P. aeruginosa PA01 [5] = experiment: Control: 21 alone as inhibitor of bacterial growth; assay type: cell-based, Pseudomonas aeruginosa; settings: up to 1 mM (data not shown)
Description: . […] Of note is that the concentration of 21 required to give rise to the increased susceptibility observed is fivefold less than the concentration of the PUGNAc analogue O-(2-deoxy-2-N-2-ethylbutyryl-D-glucopyranosylidene)amino N-phenylcarbamate (EtBuPUG) used previously to induce a similar effect.[23]

[6] = +21 (20 μL of 1 mM in H2O per well)

Work on `CC1(C)S[C@@H]2[C@H](NC(=O)[C@H](N)c3ccccc3)C(=O)N2[C@H]1C(=O)O` [Ampicillin, ampicillin] yielded an MIC (P. aeruginosa PA01 [1]; [6]) of 128 mg/L (≈ 366 µM) and an MIC (P. aeruginosa PA01 [1]; −21) of 512 mg/L (≈ 1470 µM).
In the case of `C[C@H]1[C@H](NC(=O)/C(=N\OC(C)(C)C(=O)O)c2csc(N)n2)C(=O)N1S(=O)(=O)O` [Aztreonam, aztreonam], the MIC (P. aeruginosa PA01 [1]; [6]) is reported as 0.5 mg/L (≈ 1.15 µM) and the MIC (P. aeruginosa PA01 [1]; −21) is reported as 1 mg/L (≈ 2.3 µM).
`CO[C@@]1(NC(=O)Cc2cccs2)C(=O)N2C(C(=O)O)=C(COC(N)=O)CS[C@@H]21` [Cefoxitin, cefoxitin] gave an MIC (P. aeruginosa PA01 [1]; [6]) of 512 mg/L (≈ 1200 µM) and an MIC (P. aeruginosa PA01 [1]; −21) of 2050 mg/L (≈ 4790 µM).
`CC(C)(O/N=C(\C(=O)N[C@@H]1C(=O)N2C(C(=O)[O-])=C(C[n+]3ccccc3)CS[C@H]12)c1csc(N)n1)C(=O)O` [Ceftazidime, ceftazidime] gave a Clearing radius (P. aeruginosa PA01 [2]; +21) of 14.3 mm, a Clearing radius (P. aeruginosa PA01 [2]; −21) of 12.2 mm and an MIC (P. aeruginosa PA01 [1]; [6]) of 0.5 mg/L (≈ 0.915 µM). For the same compound, the MIC (P. aeruginosa PA01 [1]; −21) was 2 mg/L (≈ 3.66 µM).
With `CC(=O)N[C@H]1CN[C@H](CO)[C@@H](O)[C@@H]1O` [Compound 1, 2-Acetamido-1,5-imino-1,2,5-trideoxy-D-glucitol] the Ki (O-GlcNAcase (OGA)) was 23 µM, the Ki (VcNagZ) was 8.5 µM and the “S.R. (Ki OGA/Ki VcNagZ)” value (VcNagZ) was 2.8. The Ki (NAGLU [3]) was 0.45 µM, the Ki (StNagZ) was 25.2 µM and the “S.R. (Ki OGA/Ki StNagZ)” value (StNagZ) was 0.94.
Compound `CCC(=O)N[C@H]1CN[C@H](CO)[C@@H](O)[C@@H]1O` [Compound 20, 1,5-Imino-2-propamido-1,2,5-trideoxy-D-glucitol] has a Ki (O-GlcNAcase (OGA)) of 130 µM, a Ki (NAGLU [4]) of 96 µM and a Ki (VcNagZ) of 4.2 µM. For the same compound, the “S.R. (Ki OGA/Ki VcNagZ)” value (VcNagZ) was 31, the Ki (β-hexosaminidase B) was 61 µM and the Ki (StNagZ) was 45.4 µM. For the same compound, the “S.R. (Ki OGA/Ki StNagZ)” value (StNagZ) was 2.9.
`CCCC(=O)N[C@H]1CN[C@H](CO)[C@@H](O)[C@@H]1O` [Compound 21, 2-Butamido-1,5-imino-1,2,5-trideoxy-D-glucitol] gave a Ki (O-GlcNAcase (OGA)) of over 500 µM, a Ki (NAGLU [4]) of over 1000 µM and a Ki (VcNagZ) of 9.4 µM. For the same compound, the “S.R. (Ki OGA/Ki VcNagZ)” value (VcNagZ) was over 53, the Ki (β-hexosaminidase B) was 1460 µM and the “S.R. (Ki OGA/Ki StNagZ)” value (StNagZ) was over 22. For the same compound, the “effect on bacterial growth rates” value (P. aeruginosa PA01 [5]) was “no differences in growth rates”.
With `CCCCC(=O)N[C@H]1CN[C@H](CO)[C@@H](O)[C@@H]1O` [Compound 22, 1,5-Imino-1,2,5-trideoxy-2-valeramido-D-glucitol] the Ki (O-GlcNAcase (OGA)) was over 1000 µM, the Ki (NAGLU [4]) was over 1000 µM and the Ki (VcNagZ) was 110 µM. For the same compound, the “S.R. (Ki OGA/Ki VcNagZ)” value (VcNagZ) was over 9, the Ki (β-hexosaminidase B) was over 5000 µM and the Ki (StNagZ) was 47.3 µM. For the same compound, the “S.R. (Ki OGA/Ki StNagZ)” value (StNagZ) was over 21.
`CCCCCC(=O)N[C@H]1CN[C@H](CO)[C@@H](O)[C@@H]1O` [Compound 23, 2-Hexamido-1,5-imino-1,2,5-trideoxy-D-glucitol] showed a Ki (O-GlcNAcase (OGA)) of over 1000 µM, a Ki (NAGLU [4]) of over 1000 µM and a Ki (VcNagZ) of 1130 µM. The “S.R. (Ki OGA/Ki VcNagZ)” value (VcNagZ) was over 0.9, the Ki (β-hexosaminidase B) was over 5000 µM and the Ki (StNagZ) was 102 µM. The “S.R. (Ki OGA/Ki StNagZ)” value (StNagZ) was over 10.
Work on `CC(C)C(=O)N[C@H]1CN[C@H](CO)[C@@H](O)[C@@H]1O` [Compound 24, 1,5-Imino-2-isobutamido-1,2,5-trideoxy-D-glucitol] yielded a Ki (O-GlcNAcase (OGA)) of over 1000 µM, a Ki (NAGLU [4]) of 800 µM and a Ki (VcNagZ) of 15.8 µM. For the same compound, the Ki (β-hexosaminidase B) was 670 µM, the Ki (StNagZ) was 24.6 µM and the “S.R. (Ki OGA/Ki StNagZ)” value (StNagZ) was over 40.
In the case of `CC(C)CC(=O)N[C@H]1CN[C@H](CO)[C@@H](O)[C@@H]1O` [Compound 25, 1,5-Imino-2-isovaleramido-1,2,5-trideoxy-D-glucitol], the Ki (O-GlcNAcase (OGA)) is reported as over 1000 µM, the Ki (NAGLU [4]) is reported as over 1000 µM and the Ki (VcNagZ) is reported as 555 µM. For the same compound, the “S.R. (Ki OGA/Ki VcNagZ)” value (VcNagZ) was over 1.8, the Ki (β-hexosaminidase B) was over 5000 µM and the Ki (StNagZ) was 294 µM. For the same compound, the “S.R. (Ki OGA/Ki StNagZ)” value (StNagZ) was over 3.4.
Work on `C[C@@H](O)[C@H]1C(=O)N2C(C(=O)O)=C(SCCN=CN)C[C@H]12` [Imipenem, imipenem] yielded a Clearing radius (P. aeruginosa PA01 [2]; +21) of 13.3 mm, a Clearing radius (P. aeruginosa PA01 [2]; −21) of 11.9 mm and an MIC (P. aeruginosa PA01 [1]; [6]) of 4 mg/L (≈ 13.4 µM). It also gave an MIC (P. aeruginosa PA01 [1]; −21) of 8 mg/L (≈ 26.7 µM).
